The values that follow come from ChEMBL document CHEMBL1201862, “PubChem BioAssay data set” (2004).

The structures appear in SMILES notation. Activity calls are given as the source filed them.

For assay [1], the target named is T1, Glycogen synthase kinase-3 beta (Homo sapiens, UniProt P49841). As to the kind of experiment: inhibition of human GSK3B activity – biochemical, microfluidics, dry powder samples, set 2, dose response (AID 623989). In kind it is functional.
In assay [2] the target is Glycogen synthase kinase-3 alpha (Homo sapiens, UniProt P49840). As to the kind of experiment: GSK3A enzyme blockers, homolog specificity check – biochemical, microfluidics, dry powder samples, set 2, selectivity assay for GSK3beta inhibitor project, dose response (AID 623978). The format is functional.
Sequence of Glycogen synthase kinase-3 alpha (P49840 whole entry): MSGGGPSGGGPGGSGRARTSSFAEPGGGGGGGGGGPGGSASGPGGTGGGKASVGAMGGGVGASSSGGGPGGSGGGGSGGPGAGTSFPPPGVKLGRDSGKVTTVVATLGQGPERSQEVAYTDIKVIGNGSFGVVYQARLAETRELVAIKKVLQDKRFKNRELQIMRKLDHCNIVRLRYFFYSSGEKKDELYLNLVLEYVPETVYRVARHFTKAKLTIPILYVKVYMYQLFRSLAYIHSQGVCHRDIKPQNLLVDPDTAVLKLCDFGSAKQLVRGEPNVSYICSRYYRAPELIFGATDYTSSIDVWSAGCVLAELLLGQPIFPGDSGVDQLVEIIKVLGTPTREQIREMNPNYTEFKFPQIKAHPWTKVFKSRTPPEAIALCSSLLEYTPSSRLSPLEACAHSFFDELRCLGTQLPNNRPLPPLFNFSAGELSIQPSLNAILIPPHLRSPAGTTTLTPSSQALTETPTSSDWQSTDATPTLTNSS
Assay [3] has as its target T2, High affinity choline transporter 1 (Homo sapiens, UniProt Q9GZV3).
T2 sequence (Q9GZV3 whole entry): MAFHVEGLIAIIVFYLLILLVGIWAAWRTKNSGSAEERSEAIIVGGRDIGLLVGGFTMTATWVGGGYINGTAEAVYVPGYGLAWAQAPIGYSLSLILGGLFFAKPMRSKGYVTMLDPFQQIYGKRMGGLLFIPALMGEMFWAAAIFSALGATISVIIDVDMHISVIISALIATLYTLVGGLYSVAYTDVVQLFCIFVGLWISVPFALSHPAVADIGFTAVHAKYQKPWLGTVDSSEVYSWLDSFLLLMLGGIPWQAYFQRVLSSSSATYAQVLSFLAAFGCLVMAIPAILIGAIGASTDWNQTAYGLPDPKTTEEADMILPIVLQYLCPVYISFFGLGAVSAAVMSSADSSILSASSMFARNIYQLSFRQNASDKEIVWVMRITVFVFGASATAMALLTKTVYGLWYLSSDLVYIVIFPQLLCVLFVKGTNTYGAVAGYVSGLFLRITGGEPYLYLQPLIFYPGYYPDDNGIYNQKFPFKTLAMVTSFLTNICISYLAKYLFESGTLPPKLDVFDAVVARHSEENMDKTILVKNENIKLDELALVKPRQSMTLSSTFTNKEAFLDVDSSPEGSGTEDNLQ
As to the kind of experiment: human choline transporter blockers, potency – cell-based, 5-point CRC, membrane potential dye, dose response (AID 504840). In kind it is functional.

The target in assay [4] is T2, High affinity choline transporter 1. Nature of the assay: human choline transporter blockers, potency – cell-based, 10-point CRC, membrane potential dye, dose response (AID 588401).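 Note: membrane potential dye fluorescence of choline-evoked depolarization via CHT.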 In kind it is functional.
In assay [5] the target is T3, Ubiquitin-conjugating enzyme E2 N (Homo sapiens, UniProt P61088).
T3 sequence (P61088 whole entry): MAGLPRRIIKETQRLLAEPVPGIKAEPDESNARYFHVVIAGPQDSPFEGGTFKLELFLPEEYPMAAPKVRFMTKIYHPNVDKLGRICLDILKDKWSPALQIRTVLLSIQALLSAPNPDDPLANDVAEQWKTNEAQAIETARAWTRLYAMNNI
The format is functional.

The target of the next assay is T4, Bcl-2-related protein A1 (Mus musculus, UniProt Q07440).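 Note: confirmatory dose–response counterscreen on Bfl-1, used to check hits from a UBC13 polyubiquitin inhibitor campaign.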
T4 sequence (Q07440 whole entry): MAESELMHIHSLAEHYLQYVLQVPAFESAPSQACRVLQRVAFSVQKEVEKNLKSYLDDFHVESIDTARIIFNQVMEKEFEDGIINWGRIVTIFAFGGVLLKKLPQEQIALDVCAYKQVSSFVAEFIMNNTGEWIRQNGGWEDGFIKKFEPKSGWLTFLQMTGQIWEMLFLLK
In kind it is functional.

The next assay has as its target CAAX prenyl protease 1 (Saccharomyces cerevisiae S288c, UniProt P47154). As to the kind of experiment: yeast CAAX protease Ste24 inhibition – biochemical, S. cerevisiae, plate reader, cherry-pick, dose response (AID 488815).
The target in assay [6] is T3, Ubiquitin-conjugating enzyme E2 N. The format is functional. This is another data set of the same source.
For another assay, the target named is T5, CAAX prenyl protease 2 (Saccharomyces cerevisiae S288c, UniProt Q03530).
T5 sequence (Q03530 whole entry): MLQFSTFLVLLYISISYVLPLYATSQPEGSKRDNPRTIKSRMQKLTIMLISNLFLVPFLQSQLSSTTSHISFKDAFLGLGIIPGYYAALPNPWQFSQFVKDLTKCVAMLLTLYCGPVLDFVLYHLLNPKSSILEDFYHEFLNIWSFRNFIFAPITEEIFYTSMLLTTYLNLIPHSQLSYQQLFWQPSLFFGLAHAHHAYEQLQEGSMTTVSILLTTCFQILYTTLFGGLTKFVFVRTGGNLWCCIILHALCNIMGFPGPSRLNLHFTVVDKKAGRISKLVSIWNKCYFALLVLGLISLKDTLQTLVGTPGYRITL
The format is biochemical.

For assay [7], the target named is Serine/threonine-protein kinase pim-1 (Homo sapiens, UniProt P11309). In kind it is functional.
Sequence of Serine/threonine-protein kinase pim-1 (P11309 whole entry): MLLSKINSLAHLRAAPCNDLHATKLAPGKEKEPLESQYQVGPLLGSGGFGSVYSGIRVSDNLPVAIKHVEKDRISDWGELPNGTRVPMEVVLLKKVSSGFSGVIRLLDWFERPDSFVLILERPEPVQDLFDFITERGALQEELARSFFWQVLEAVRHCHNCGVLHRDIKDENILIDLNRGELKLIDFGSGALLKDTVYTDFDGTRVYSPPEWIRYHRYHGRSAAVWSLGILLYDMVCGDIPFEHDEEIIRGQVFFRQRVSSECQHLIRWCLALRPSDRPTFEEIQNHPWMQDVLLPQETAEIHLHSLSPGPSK
Assay [8] deals with Rho-associated protein kinase 1 (Homo sapiens, UniProt Q13464). The format is functional.
Sequence of Rho-associated protein kinase 1 (Q13464 whole entry): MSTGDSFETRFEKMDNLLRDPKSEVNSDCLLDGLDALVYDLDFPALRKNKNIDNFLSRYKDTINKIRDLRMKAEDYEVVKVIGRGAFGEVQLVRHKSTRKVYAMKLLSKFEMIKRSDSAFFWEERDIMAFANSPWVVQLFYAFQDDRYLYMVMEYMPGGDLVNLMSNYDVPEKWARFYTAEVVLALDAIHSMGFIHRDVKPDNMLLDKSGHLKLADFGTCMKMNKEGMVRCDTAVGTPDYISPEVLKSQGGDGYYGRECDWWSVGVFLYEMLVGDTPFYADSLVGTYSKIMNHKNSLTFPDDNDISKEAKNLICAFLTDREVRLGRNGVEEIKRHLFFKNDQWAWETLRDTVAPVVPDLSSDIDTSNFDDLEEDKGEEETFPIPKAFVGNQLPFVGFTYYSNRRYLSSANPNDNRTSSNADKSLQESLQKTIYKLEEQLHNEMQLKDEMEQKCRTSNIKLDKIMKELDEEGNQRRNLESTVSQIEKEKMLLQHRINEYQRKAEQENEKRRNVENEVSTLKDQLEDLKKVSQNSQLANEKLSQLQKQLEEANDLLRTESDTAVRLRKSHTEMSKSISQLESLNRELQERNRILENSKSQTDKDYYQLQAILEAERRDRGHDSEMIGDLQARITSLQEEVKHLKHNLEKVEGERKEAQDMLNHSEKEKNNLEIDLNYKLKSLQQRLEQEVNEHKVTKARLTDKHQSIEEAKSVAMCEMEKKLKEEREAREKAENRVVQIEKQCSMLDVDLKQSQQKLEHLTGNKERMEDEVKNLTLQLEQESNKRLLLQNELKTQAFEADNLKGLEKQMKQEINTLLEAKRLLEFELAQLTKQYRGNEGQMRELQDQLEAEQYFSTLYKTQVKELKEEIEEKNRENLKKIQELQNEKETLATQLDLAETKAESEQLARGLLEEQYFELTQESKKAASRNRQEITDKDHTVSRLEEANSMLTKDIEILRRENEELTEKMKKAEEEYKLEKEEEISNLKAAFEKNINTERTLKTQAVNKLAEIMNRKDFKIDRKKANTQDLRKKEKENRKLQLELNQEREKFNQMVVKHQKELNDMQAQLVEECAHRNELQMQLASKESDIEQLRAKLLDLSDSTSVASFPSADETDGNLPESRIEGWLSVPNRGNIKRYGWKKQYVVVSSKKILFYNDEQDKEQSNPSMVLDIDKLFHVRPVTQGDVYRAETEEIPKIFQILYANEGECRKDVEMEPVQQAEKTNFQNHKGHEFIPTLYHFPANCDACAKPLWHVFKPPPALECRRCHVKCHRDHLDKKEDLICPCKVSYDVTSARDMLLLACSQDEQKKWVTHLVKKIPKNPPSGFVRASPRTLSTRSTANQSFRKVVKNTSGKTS
Assay [9] addresses Cyclin-dependent kinase 7 (Homo sapiens, UniProt P50613). In kind it is functional.
Assay [10] deals with Cyclin-dependent kinase 9 (Homo sapiens, UniProt P50750). The format is functional.
Assay [11] concerns the target T1, Glycogen synthase kinase-3 beta. The format is functional.
Assay [12] concerns the target Dual specificity protein kinase CLK4 (Homo sapiens, UniProt Q9HAZ1). In kind it is functional.
Assay [13] deals with Cyclin-dependent kinase 8 (Homo sapiens, UniProt P49336). As to the kind of experiment: Navigating the Kinome. Panel member name: CDK8. In kind it is functional.
Sequence of Cyclin-dependent kinase 8 (P49336 whole entry): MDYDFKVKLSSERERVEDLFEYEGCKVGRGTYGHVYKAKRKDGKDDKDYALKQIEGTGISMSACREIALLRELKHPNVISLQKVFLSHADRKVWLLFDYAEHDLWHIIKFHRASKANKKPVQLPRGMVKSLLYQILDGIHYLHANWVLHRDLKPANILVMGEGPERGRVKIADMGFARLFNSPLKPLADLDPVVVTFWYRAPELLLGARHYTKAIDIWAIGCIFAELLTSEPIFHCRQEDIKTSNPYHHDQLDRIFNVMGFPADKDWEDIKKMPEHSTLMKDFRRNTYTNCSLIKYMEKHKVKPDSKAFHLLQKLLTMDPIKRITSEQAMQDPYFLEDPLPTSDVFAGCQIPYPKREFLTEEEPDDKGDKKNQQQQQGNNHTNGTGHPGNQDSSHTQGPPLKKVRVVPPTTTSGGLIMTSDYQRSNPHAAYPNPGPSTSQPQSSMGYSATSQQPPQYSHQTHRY
The target in assay [14] is Serine/threonine-protein kinase Chk1 (Homo sapiens, UniProt O14757). The format is functional.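 Note: measured as one member of a kinome-wide kinase profiling panel.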
The target of another assay is LIM domain kinase 1 (Homo sapiens, UniProt P53667). As to the kind of experiment: Navigating the Kinome. Panel member name: LIMK1. The format is functional.
Assay [15] addresses Melanin-concentrating hormone receptor 1 (Homo sapiens, UniProt Q99705). Nature of the assay: Late-stage fluorescence-based counterscreen for antagonists of the G-protein coupled receptor 7 (GPR7): cell-based dose response assay to identify antagonists of the melanin-concentrating hormone receptor 1 (MCHR1) Set 5. The format is functional. A general note: The purpose of a counterscreen is to sort out artefacts and off-target activity.

Assay [16] has as its target Neuropeptides B/W receptor type 1 (Homo sapiens, UniProt P48145). Nature of the assay: human NPBW1 receptor blockade, IC50 – cell-based, fluorescence, dose response, set 5, late-stage follow-up (AID 588566). In kind it is functional.
The target of assay [17] is MAP kinase-activated protein kinase 3 (Homo sapiens, UniProt Q16644). In kind it is functional.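 Note: value comes from a kinome-wide profiling panel in which MAPKAPK3 is one of the panel members.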
Assay [18] addresses T6, Lymphokine-activated killer T-cell-originated protein kinase (Homo sapiens, UniProt Q96KB5).
T6 sequence (Q96KB5 whole entry): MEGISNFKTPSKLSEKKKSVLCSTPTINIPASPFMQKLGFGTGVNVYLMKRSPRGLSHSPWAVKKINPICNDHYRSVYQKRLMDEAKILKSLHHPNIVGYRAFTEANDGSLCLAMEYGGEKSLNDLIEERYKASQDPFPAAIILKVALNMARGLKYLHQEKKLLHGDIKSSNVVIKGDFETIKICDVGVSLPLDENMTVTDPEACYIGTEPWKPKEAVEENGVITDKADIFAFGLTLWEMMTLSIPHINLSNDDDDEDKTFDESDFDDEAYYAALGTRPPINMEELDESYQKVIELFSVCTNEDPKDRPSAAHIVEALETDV
The format is functional.

For assay [19], the target named is T7, Testis-specific serine/threonine-protein kinase 2 (Homo sapiens, UniProt Q96PF2).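 Note: part of the Navigating the Kinome panel, target entry STK22B.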
T7 sequence (Q96PF2 whole entry): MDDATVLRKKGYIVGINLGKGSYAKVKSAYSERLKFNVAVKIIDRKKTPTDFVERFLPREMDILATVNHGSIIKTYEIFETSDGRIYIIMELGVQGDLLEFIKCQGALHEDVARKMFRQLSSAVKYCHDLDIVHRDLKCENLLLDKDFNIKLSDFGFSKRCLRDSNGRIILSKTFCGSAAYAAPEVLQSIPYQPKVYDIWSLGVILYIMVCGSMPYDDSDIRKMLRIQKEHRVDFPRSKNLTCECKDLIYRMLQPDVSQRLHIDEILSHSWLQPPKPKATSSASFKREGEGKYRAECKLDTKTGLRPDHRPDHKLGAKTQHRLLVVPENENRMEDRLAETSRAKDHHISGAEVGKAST
In kind it is functional.

Assay [20] concerns the target Eukaryotic elongation factor 2 kinase (Homo sapiens, UniProt O00418). The format is functional.
For assay [21], the target named is Cell division cycle 7-related protein kinase (Homo sapiens, UniProt O00311). The format is functional.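 Note: value obtained from a kinome-wide kinase panel.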
Assay [22] addresses Protein kinase C gamma type (Homo sapiens, UniProt P05129). The format is functional.
Assay [23] concerns the target Cyclin-dependent kinase 1 (Homo sapiens, UniProt P06493). In kind it is functional.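 Note: Kinome-wide panel profiling, with the target listed as panel member CDC2.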
Assay [24] addresses G protein-coupled receptor kinase 5 (Homo sapiens, UniProt P34947). Nature of the assay: Navigating the Kinome. Panel member name: GPRK5. In kind it is functional.
Assay [25] has as its target PAS domain-containing serine/threonine-protein kinase (Homo sapiens, UniProt Q96RG2). In kind it is functional.
Assay [26] addresses T8, Protein kinase C zeta type (Homo sapiens, UniProt Q05513).
T8 sequence (Q05513 whole entry): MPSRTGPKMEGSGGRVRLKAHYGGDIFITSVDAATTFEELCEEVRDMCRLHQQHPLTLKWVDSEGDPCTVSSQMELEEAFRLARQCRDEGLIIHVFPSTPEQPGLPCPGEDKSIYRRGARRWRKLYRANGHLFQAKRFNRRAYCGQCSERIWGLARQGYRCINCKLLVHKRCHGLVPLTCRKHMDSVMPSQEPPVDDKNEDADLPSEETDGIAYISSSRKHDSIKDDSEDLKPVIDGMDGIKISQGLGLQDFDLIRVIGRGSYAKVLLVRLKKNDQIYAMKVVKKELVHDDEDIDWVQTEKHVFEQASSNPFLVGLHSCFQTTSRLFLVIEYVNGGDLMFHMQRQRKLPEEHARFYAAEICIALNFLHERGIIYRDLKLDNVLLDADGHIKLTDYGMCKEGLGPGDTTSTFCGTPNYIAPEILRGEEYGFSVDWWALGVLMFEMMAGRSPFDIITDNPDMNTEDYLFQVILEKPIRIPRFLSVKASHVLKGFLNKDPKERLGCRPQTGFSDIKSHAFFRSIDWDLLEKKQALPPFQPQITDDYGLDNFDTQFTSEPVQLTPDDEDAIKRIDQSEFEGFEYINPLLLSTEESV
In kind it is functional.

For assay [27], the target named is T9, Dual specificity tyrosine-phosphorylation-regulated kinase 3 (Homo sapiens, UniProt O43781).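 Note: measured as one member of a broad kinase panel.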
T9 sequence (O43781 whole entry): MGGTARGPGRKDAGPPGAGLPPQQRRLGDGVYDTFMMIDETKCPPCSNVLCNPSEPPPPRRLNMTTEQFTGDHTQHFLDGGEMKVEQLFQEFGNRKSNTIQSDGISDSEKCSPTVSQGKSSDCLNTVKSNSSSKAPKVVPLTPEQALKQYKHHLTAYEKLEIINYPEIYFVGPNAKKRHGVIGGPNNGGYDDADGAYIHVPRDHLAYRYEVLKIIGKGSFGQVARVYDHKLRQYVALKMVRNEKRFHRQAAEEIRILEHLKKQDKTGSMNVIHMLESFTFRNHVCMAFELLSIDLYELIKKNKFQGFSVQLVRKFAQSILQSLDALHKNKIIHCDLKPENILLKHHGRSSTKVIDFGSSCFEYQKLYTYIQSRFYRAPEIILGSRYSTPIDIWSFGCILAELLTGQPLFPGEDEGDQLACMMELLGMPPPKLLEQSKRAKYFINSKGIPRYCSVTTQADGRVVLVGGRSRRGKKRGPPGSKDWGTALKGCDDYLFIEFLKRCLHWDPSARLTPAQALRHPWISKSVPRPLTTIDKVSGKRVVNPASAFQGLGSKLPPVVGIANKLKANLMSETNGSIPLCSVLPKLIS
In kind it is functional.

T1 sequence (P49841 whole entry): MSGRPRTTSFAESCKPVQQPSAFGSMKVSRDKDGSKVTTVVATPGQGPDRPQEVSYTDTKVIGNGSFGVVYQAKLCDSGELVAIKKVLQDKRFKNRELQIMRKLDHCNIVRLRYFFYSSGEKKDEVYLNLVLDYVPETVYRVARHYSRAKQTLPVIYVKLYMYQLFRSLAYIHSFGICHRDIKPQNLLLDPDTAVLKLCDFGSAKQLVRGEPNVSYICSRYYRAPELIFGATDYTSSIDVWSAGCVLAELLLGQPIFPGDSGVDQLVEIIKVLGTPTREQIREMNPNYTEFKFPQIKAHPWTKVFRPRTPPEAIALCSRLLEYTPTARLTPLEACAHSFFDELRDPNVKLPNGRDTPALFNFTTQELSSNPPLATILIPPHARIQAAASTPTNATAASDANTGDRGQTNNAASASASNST
Sequence of Melanin-concentrating hormone receptor 1 (Q99705 whole entry): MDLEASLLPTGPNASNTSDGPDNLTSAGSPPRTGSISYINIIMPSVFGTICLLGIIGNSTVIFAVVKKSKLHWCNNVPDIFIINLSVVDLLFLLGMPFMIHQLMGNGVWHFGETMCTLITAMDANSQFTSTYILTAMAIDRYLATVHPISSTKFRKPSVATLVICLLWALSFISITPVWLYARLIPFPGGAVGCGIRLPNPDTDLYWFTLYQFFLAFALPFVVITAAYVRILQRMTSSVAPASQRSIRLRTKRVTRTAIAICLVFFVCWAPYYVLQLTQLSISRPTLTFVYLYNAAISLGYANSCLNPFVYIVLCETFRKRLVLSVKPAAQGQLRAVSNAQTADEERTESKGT
Sequence of Neuropeptides B/W receptor type 1 (P48145 whole entry): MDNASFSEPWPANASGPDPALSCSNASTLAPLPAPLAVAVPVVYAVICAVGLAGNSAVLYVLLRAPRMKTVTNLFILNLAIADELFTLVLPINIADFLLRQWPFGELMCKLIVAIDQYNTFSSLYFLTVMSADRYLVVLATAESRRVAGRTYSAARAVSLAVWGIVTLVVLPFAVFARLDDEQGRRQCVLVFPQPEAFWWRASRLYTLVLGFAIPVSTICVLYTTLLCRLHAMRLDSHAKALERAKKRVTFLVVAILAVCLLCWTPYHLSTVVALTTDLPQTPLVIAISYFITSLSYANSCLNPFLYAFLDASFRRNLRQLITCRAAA
Sequence of CAAX prenyl protease 1 (P47154 whole entry): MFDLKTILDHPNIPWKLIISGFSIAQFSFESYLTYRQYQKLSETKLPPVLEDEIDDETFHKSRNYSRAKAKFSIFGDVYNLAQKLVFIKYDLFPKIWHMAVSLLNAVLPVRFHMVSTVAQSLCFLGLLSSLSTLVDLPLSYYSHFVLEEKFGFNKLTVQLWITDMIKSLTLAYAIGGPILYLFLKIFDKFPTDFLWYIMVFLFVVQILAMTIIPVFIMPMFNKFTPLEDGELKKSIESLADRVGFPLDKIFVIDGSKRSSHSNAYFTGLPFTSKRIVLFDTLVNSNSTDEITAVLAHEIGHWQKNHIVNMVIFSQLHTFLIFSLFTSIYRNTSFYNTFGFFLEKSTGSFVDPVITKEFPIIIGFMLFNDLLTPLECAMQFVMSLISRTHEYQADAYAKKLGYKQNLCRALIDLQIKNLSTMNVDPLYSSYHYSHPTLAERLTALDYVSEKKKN
Sequence of G protein-coupled receptor kinase 5 (P34947 whole entry, the tested form may be a part): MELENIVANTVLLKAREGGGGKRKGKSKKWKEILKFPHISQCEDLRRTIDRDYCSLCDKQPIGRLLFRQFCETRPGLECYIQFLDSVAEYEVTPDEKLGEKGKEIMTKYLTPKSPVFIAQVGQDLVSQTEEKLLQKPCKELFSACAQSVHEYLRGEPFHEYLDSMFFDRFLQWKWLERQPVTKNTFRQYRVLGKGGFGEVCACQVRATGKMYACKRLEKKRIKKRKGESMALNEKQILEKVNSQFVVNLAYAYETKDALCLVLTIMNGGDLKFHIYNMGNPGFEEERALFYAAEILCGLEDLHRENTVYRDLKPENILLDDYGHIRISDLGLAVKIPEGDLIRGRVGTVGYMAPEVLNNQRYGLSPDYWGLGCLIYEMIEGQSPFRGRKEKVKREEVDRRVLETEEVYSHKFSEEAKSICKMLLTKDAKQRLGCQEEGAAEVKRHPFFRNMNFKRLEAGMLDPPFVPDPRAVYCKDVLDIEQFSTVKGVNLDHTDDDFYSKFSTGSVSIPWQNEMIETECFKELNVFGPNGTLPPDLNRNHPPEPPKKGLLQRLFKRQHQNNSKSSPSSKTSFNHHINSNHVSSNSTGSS

As for `Nc1nc(NCC2CCCO2)nc(Nc2ccc(Cl)cc2)c1[N+](=O)[O-]` (stereo unspecified), the concentration at half-maximal activity (AC50) – broadly, the concentration giving half of the maximal activity seen – in [1] is 0.429 µM (active); in assay [2] it was 1.56 µM (active).
With `NCCCn1c(C(=O)c2cc(Cl)c(N)c(Cl)c2)c2ccc(C(F)(F)F)cc2[n+]1[O-]`, the IC50 (in general, the concentration that inhibits the measured activity by half) in assay [3] was 1.39 µM (active); in assay [4] it was 1.08 µM (active); in assay [5], 4.28 µM (active); on Bcl-2-related protein A1, > 20 µM (inactive); in assay [6] it was 4.21 µM (active). Also, the AC50 on CAAX prenyl protease 1 is > 100 µM (inactive); at CAAX prenyl protease 2 it was 35.5 µM (active).
On to `O=C(C=Cc1ccc(Br)cc1)Nc1cccc2cnccc12`, for which the Ki (as a rule, the equilibrium dissociation constant of an inhibitor or competing ligand from its target) in assay [7] is 2.51 µM (active); in [8], 3.16 µM (active); in assay [9], 1.58 µM (active); in assay [10], 1.58 µM (active); in assay [11], 2 µM (active); in assay [12], 1.58 µM (active). Further, the Ki in assay [13] is 2 µM (active); in [14], 2 µM (active); at LIM domain kinase 1, 3.16 µM (active).
In the case of `COc1ccc(Oc2c(F)cnn(Cc3cccc4ccccc34)c2=O)cc1`, the IC50 in [15] was 8.86 µM (active); in assay [16], 2.07 µM (active).
On to `CNC(=O)c1ccccc1Sc1ccc2c(C=Cc3ccccn3)n[nH]c2c1`, for which the Ki was > 10 µM (inactive) in assay [17]; > 10 µM (inactive) in assay [18]; > 1.58 µM (inactive) in assay [19]; > 3.98 µM (inactive) in assay [20]; > 1.26 µM (inactive) in assay [21]; > 7.94 µM (inactive) in assay [22]. Further, the Ki in assay [23] was > 7.94 µM (inactive); in assay [24] it was > 3.98 µM (inactive); in assay [25], > 1.58 µM (inactive); in assay [26] it was > 7.94 µM (inactive); in assay [27], > 6.31 µM (inactive).
